# Results: US20090081174A1 (priority 2005, published 2009)
# System: Phytophthora infestans, strain resistant to phenylalanine
# Conditions: listed phosphite salt(s) alone at 750 ppm equivalent phosphorous acid, potato plants, scale 100 to 0
structure (smiles),measurement,value
"O=[PH]([O-])[O-].[Cu+2] [CuHPO3, copper (II) salt of phosphorous acid]",Activity (y),12
